Experimental data: BigSolDB 2.1

CCOC(=O)c1ccc(N)cc1
solubility (mole fraction)
Settings	in ethanol	in isobutanol	in isopentanol	in methanol	in n-butanol	in n-propanol
283.15 K	0.0522	0.0281	0.0335	0.0528	0.037	0.0441
287.15 K	0.0611	0.0328	0.0371	0.0629	0.0467	0.0521
291.15 K	0.0712	0.0392	0.0439	0.075	0.0562	0.0605
295.15 K	0.0831	0.048	0.0529	0.0863	0.0668	0.071
299.15 K	0.0982	0.0583	0.0632	0.103	0.0821	0.085
303.15 K	0.115	0.071	0.0757	0.12	0.0981	0.101
307.15 K	0.135	0.0879	0.0917	0.141	0.118	0.121
311.15 K	0.16	0.111	0.115	0.168	0.146	0.148
315.15 K	0.191	0.14	0.145	0.2	0.176	0.179
318.15 K	0.221	0.168	0.172	0.227	0.207	0.211
321.15 K	0.251	0.204	0.206	0.259	0.241	0.245
324.15 K	0.289	0.25	0.252	0.296	0.281	0.284
327.15 K	0.328	0.303	0.305	0.335	0.323	0.326
